Experimental data taken from ChEMBL document CHEMBL1129917, “Structure-based design of novel, dipeptide ligands targeting the pp60Src SH2 domain” (Bioorg Med Chem Lett, 1997).

Biological target: Proto-oncogene tyrosine-protein kinase Src (Homo sapiens, UniProt P12931)
Test: Inhibition of [125I]-labeled phosphopeptide binding to a Src protein tyrosine kinase SH2 domain.

Proto-oncogene tyrosine-protein kinase Src, sequence (P12931 2-536 limits assumed): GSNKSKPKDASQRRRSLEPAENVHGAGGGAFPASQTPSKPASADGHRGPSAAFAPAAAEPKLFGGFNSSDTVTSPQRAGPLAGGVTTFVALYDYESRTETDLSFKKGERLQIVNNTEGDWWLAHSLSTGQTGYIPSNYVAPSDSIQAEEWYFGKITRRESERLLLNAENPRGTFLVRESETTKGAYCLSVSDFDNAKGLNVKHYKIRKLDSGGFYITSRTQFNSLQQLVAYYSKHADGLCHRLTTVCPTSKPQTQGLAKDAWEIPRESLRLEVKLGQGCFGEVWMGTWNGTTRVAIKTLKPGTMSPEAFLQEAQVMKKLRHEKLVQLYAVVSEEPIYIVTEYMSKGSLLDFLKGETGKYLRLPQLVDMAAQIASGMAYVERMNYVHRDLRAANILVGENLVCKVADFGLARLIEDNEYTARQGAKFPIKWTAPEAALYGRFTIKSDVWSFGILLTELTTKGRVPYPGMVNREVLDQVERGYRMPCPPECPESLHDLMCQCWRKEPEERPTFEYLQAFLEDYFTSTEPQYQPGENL

Structure (SMILES)	IC50
CC(=O)N[C@@H](Cc1ccc(OP(=O)(O)O)cc1)C(=O)N[C@@H](C)C(=O)NCCCc1ccccc1	15 µM
CC(=O)N[C@@H](Cc1ccc(OP(=O)(O)O)cc1)C(=O)N[C@@H](C)C(=O)N(CCCC(=O)O)CCCc1ccccc1	6.4 µM
CCC[C@H](NC(=O)[C@H](Cc1ccc(OP(=O)(O)O)cc1)NC(C)=O)C(=O)NCCCc1ccccc1	12 µM
CC(=O)N[C@@H](Cc1ccc(OP(=O)(O)O)cc1)C(=O)N[C@@H](Cc1ccc(OP(=O)(O)O)cc1)C(=O)NCCCc1ccccc1	3.9 µM
CCCC(NC(=O)[C@H](Cc1ccc(OP(=O)(O)O)cc1)NC(C)=O)C(=O)N(CCCC(=O)O)CCCc1ccccc1 (stereo partly specified)	4.3 µM
CC(=O)N[C@@H](Cc1ccc(OP(=O)(O)O)cc1)C(=O)N[C@H](C(=O)NCCCc1ccccc1)C(C)C	~30 µM
CC(=O)N[C@@H](Cc1ccc(OP(=O)(O)O)cc1)C(=O)N[C@@H](CCC(=O)O)C(=O)N[C@@H](CCC(N)=O)Cc1cccc2ccccc12	2.3 µM
CC(=O)N[C@@H](Cc1ccc(OP(=O)(O)O)cc1)C(=O)N[C@@H](CCC(=O)O)C(=O)NCCc1ccccc1	9.1 µM

Next, values leading:

IC50	Structure (SMILES)
~46 µM	CC(=O)N[C@@H](Cc1ccc(OP(=O)(O)O)cc1)C(=O)NCC(=O)NCCCc1ccccc1
3.5 µM	CC(=O)N[C@@H](Cc1ccc(OP(=O)(O)O)cc1)C(=O)N[C@@H](CCC(=O)O)C(=O)N(C)CCCc1ccccc1
2 µM	CC(=O)N[C@@H](Cc1ccc(OP(=O)(O)O)cc1)C(=O)N[C@@H](CCC(=O)O)C(=O)N(CCCC(=O)O)CCCc1ccccc1
4.6 µM	CCc1ccccc1CCNC(=O)[C@H](CCC(=O)O)NC(=O)[C@H](Cc1ccc(OP(=O)(O)O)cc1)NC(C)=O
14 µM	CC(=O)N[C@@H](Cc1ccc(OP(=O)(O)O)cc1)C(=O)NCC(=O)N(CCCC(=O)O)CCCc1ccccc1
3.2 µM	CC(=O)N[C@@H](Cc1ccc(OP(=O)(O)O)cc1)C(=O)N[C@@H](CCC(=O)O)C(=O)NCCC1=CC=CC2CCCCC12 (stereo partly specified)
0.24 µM	CC(=O)N[C@@H](Cc1ccc(OP(=O)(O)O)cc1)C(=O)N[C@@H](Cc1ccc(OP(=O)(O)O)cc1)C(=O)N[C@@H](Cc1ccc(OP(=O)(O)O)cc1)C(N)=O
4.8 µM	CC(=O)N[C@@H](Cc1ccc(OP(=O)(O)O)cc1)C(=O)N[C@@H](CCC(=O)O)C(=O)NCCc1cccc2ccccc12
